In test [1] the test system is Staphylococcus aureus. The test can be described thus: Antibacterial activity against Staphylococcus aureus after 24 hrs by microbroth dilution method. Format: functional. A general note: Broth dilution looks for growth in wells or tubes with falling amounts of substance.
The test system of test [2] is Staphylococcus aureus. The test can be described thus: Antibacterial activity against oxacillin-sensitive Staphylococcus aureus after 24 hrs by microbroth dilution method. Format: functional.
The test system of test [3] is Staphylococcus aureus. Put plainly: Antibacterial activity against oxacillin-resistant Staphylococcus aureus after 24 hrs by microbroth dilution method. The class given is functional.
Test [4] has as its system Escherichia coli. Put plainly: Antibacterial activity against Escherichia coli after 24 hrs by microbroth dilution method. The class given is functional.
Test [5] has as its system Pseudomonas aeruginosa. The test can be described thus: Antibacterial activity against Pseudomonas aeruginosa after 24 hrs by microbroth dilution method. The class given is functional.
Test [6] relates to Pseudomonas aeruginosa. Put plainly: Antibacterial activity against colistin-sensitive Pseudomonas aeruginosa after 24 hrs by microbroth dilution method. Format: functional.
In a further test the test system is Inquilinus limosus. Put plainly: Antibacterial activity against colistin-resistant Inquilinus limosus after 24 hrs by microbroth dilution method. Format: functional.
For a further test, the system named is Burkholderia cepacia. The test can be described thus: Antibacterial activity against Colistin resistant Burkholderia cepacia after 24 hrs by microbroth dilution method. The class given is functional.
The test system of test [7] is Escherichia coli. Put plainly: Antibacterial activity against Escherichia coli ATCC 25922 after 24 hrs by microbroth dilution method in absence of Mg2+. Format: functional. As to conditions: ATCC 25922, 24 h.
The test system of test [8] is Staphylococcus aureus. Put plainly: Antibacterial activity against Staphylococcus aureus ATCC 25923 after 24 hrs by microbroth dilution method in absence of Mg2+. Format: functional. The settings on record: ATCC 25923, 24 h.
The test system of test [9] is Escherichia coli. The test can be described thus: Antibacterial activity against Escherichia coli ATCC 25922 after 24 hrs by microbroth dilution method in presence of Mg2+. The class given is functional. The settings on record: ATCC 25922, 24 h.
For test [10], the system named is Staphylococcus aureus. The test can be described thus: Antibacterial activity against Staphylococcus aureus ATCC 25923 after 24 hrs by microbroth dilution method in presence of Mg2+. As to conditions: ATCC 25923, 24 h. Format: functional.
In test [11] the test system is Staphylococcus aureus. Put plainly: Bactericidal activity against Staphylococcus aureus DSM 799 assessed as log decrease in bacterial count at MIC after 2 hrs by time-kill assay. The class given is functional.
Test [12] relates to Escherichia coli. The test can be described thus: Ratio of MIC for Escherichia coli ATCC 25922 in presence of Mg2+ to MIC for Escherichia coli ATCC 25922 in absence of Mg2+. Format: functional.
Test [13] concerns Escherichia coli. Put plainly: Antibacterial activity against Escherichia coli assessed as induction of ATP efflux at 4 times MIC after 5 mins by luminometry analysis. The class given is functional.
For test [14], the system named is Staphylococcus aureus. The test can be described thus: Antibacterial activity against Staphylococcus aureus assessed as induction of ATP efflux at 4 times MIC after 5 mins by luminometry. Format: functional.
Test [15] has as its system Escherichia coli. Put plainly: Antibacterial activity against Escherichia coli assessed as induction of bacterial membrane depolarization at MIC measured up to 21 mins by fluorescence assay. Format: functional, organism-based.
In test [16] the test system is Staphylococcus aureus. Put plainly: Antibacterial activity against Staphylococcus aureus assessed as induction of bacterial membrane depolarization at MIC measured up to 21 mins by fluorescence assay. The class given is functional, organism-based.
Test [17] has as its system Staphylococcus aureus. Put plainly: Antibacterial activity against Staphylococcus aureus assessed as induction of bacterial membrane depolarization at MIC after 3 mins by fluorescence assay. The class given is functional.

In brackets after ≈: the same amount, converted by molar mass. Activity calls are given as the source filed them. Where only a bound is given, the exact number is not on record here.

For `C[C@@H](NCCCCCCCN)[C@H]1CC[C@H]2[C@@H]3CCC4=C[C@@H](NCCCCCCCN)CC[C@]4(C)[C@H]3CC[C@]12C`, the MIC came out at 2.5 µg/mL (≈ 4.6 µM) against Staphylococcus aureus [1]; 2.5 µg/mL (≈ 4.6 µM) in the test with Staphylococcus aureus [2]; 5 µg/mL (≈ 9.21 µM) against Staphylococcus aureus [3]; 5 µg/mL (≈ 9.21 µM) with Escherichia coli [4]; 10 µg/mL (≈ 18.4 µM) in the test with Pseudomonas aeruginosa [5]; 10 µg/mL (≈ 18.4 µM) in the test on Pseudomonas aeruginosa [6]. Besides, the figures for the MIC in the test on Inquilinus limosus and against Burkholderia cepacia were 20 µg/mL (≈ 36.8 µM) and > 40 µg/mL, respectively.

As to `NC[C@H]1O[C@H](O[C@H]2[C@H](O)[C@@H](O[C@H]3O[C@H](CO)[C@@H](O)[C@H](N)[C@H]3O)[C@H](N)C[C@@H]2N)[C@H](N)C[C@@H]1O` [TOBRAMYCIN], the MIC with Staphylococcus aureus [1] was 1.25 µg/mL (≈ 2.67 µM); against Staphylococcus aureus [2] it was 1.25 µg/mL (≈ 2.67 µM); in the test with Escherichia coli [4] it was 2.5 µg/mL (≈ 5.35 µM); with Pseudomonas aeruginosa [5], 5 µg/mL (≈ 10.7 µM); in the test with Pseudomonas aeruginosa [6], 5 µg/mL (≈ 10.7 µM); against Inquilinus limosus, > 40 µg/mL. In addition, the minimum inhibitory concentration (MIC) in the test on Burkholderia cepacia was > 40 µg/mL; in the test with Escherichia coli [7], 2 µg/mL (≈ 4.28 µM); against Staphylococcus aureus [8] it was 1 µg/mL (≈ 2.14 µM); in the test with Escherichia coli [9], 1 µg/mL; with Staphylococcus aureus [10], 2 µg/mL. Further, in the test on Staphylococcus aureus [11], the FC is recorded as 5.

In the case of `CC(C)[C@@H](CC[C@@H](C)[C@H]1CC[C@H]2[C@@H]3[C@H](O)C[C@H]4C[C@@H](NCCCNCCCCN)CC[C@]4(C)[C@H]3CC[C@]12C)OS(=O)(=O)O` [SQUALAMINE], the minimal inhibitory concentration (MIC) against Staphylococcus aureus [1] is 1.25 µg/mL (≈ 1.99 µM); with Staphylococcus aureus [2], 0.3 µg/mL (≈ 0.478 µM); against Staphylococcus aureus [3] it was 1.25 µg/mL (≈ 1.99 µM); in the test on Escherichia coli [4] it was 5 µg/mL (≈ 7.96 µM); against Pseudomonas aeruginosa [5], 2.5 µg/mL (≈ 3.98 µM); with Pseudomonas aeruginosa [6], 5 µg/mL (≈ 7.96 µM). Further, the minimum inhibitory concentration (MIC) is 5 µg/mL (≈ 7.96 µM) in the test on Inquilinus limosus; > 40 µg/mL in the test on Burkholderia cepacia; 2.5 µg/mL (≈ 3.98 µM) against Escherichia coli [7]; 1.25 µg/mL (≈ 1.99 µM) in the test with Staphylococcus aureus [8]; 32 µg/mL in the test on Escherichia coli [9]; 1.25 µg/mL in the test with Staphylococcus aureus [10]. Further, the Ratio with Escherichia coli [12] is 4. The Activity with Escherichia coli [13] is on record as <35%; in the test with Staphylococcus aureus [14], 100%; with Staphylococcus aureus [17], 80%. In addition, in the test on Escherichia coli [15], the result was inactive. In the test with Staphylococcus aureus [16], the result was Active.

As for `C[C@@H](NCCCCN)[C@H]1CC[C@H]2[C@@H]3CCC4=C[C@@H](NCCCCN)CC[C@]4(C)[C@H]3CC[C@]12C`, the MIC was found to be 5 µg/mL (≈ 10.9 µM) in the test on Staphylococcus aureus [1]; 10 µg/mL (≈ 21.8 µM) in the test with Staphylococcus aureus [2]; 6 µg/mL (≈ 13.1 µM) against Staphylococcus aureus [3]; 10 µg/mL (≈ 21.8 µM) in the test with Escherichia coli [4]; 20 µg/mL (≈ 43.6 µM) in the test with Pseudomonas aeruginosa [5]; 20 µg/mL (≈ 43.6 µM) in the test on Pseudomonas aeruginosa [6]. Moreover, the MIC in the test with Inquilinus limosus is 40 µg/mL (≈ 87.2 µM); against Burkholderia cepacia, > 40 µg/mL.

As for `C[C@@H](NCCCCCN)[C@H]1CC[C@H]2[C@@H]3CCC4=C[C@@H](NCCCCCN)CC[C@]4(C)[C@H]3CC[C@]12C`, the minimal inhibitory concentration (MIC) in the test with Staphylococcus aureus [1] was 5 µg/mL (≈ 10.3 µM); in the test on Staphylococcus aureus [2], 5 µg/mL (≈ 10.3 µM); against Staphylococcus aureus [3], 10 µg/mL (≈ 20.5 µM); in the test with Escherichia coli [4], 10 µg/mL (≈ 20.5 µM); in the test on Pseudomonas aeruginosa [5], 10 µg/mL (≈ 20.5 µM); in the test on Pseudomonas aeruginosa [6], 20 µg/mL (≈ 41.1 µM). Besides, the MIC against Inquilinus limosus is 40 µg/mL (≈ 82.2 µM); against Burkholderia cepacia, > 40 µg/mL.

As for `C[C@@H](NCCCN)[C@H]1CC[C@H]2[C@@H]3CCC4=C[C@@H](NCCCN)CC[C@]4(C)[C@H]3CC[C@]12C`, the MIC against Staphylococcus aureus [1] came to 10 µg/mL (≈ 23.2 µM); against Staphylococcus aureus [2] it was 10 µg/mL (≈ 23.2 µM); against Staphylococcus aureus [3], 5 µg/mL (≈ 11.6 µM); against Escherichia coli [4], 10 µg/mL (≈ 23.2 µM); against Pseudomonas aeruginosa [5] it was 10 µg/mL (≈ 23.2 µM); in the test with Pseudomonas aeruginosa [6] it was 20 µg/mL (≈ 46.4 µM). The values for the MIC in the test on Inquilinus limosus and in the test with Burkholderia cepacia were 20 µg/mL (≈ 46.4 µM) and > 40 µg/mL, respectively.

Take `CN[C@@H]1C=C2CC[C@H]3[C@@H]4CC[C@H]([C@@H](C)NC)[C@@]4(C)CC[C@@H]3[C@@]2(C)CC1`: the MIC is 40 µg/mL (≈ 116 µM) in the test on Staphylococcus aureus [1]; 20 µg/mL (≈ 58 µM) against Staphylococcus aureus [2]; 20 µg/mL (≈ 58 µM) in the test on Staphylococcus aureus [3]; > 40 µg/mL in the test with Escherichia coli [4]; > 40 µg/mL against Pseudomonas aeruginosa [5]; > 40 µg/mL with Pseudomonas aeruginosa [6]. Further, the MIC against Inquilinus limosus and in the test with Burkholderia cepacia was > 40 µg/mL each time.

Usually MIC stands for the smallest concentration in the dilution series that meets the test's criterion for growth inhibition.

These data come from ChEMBL document CHEMBL1833963, “Synthesis of new 3,20-bispolyaminosteroid squalamine analogues and evaluation of their antimicrobial activities” (2011).
